{"source": "patent US20110064789A1", "about": "“DOCOSAHEXANOIC ACID AS INHIBITOR OF H. PYLORI” (priority 2009, published 2011)", "key": {"H. pylori [1]": {"test_system": "H. pylori", "settings": "in vitro assay of Thompson et al.; cited from earlier work"}, "H. pylori [2]": {"test_system": "H. pylori", "settings": "cited from earlier work"}, "[3]": {"test_system": "H. pylori strains 26695 (ATCC 700392), SS1 and B128", "assay": "In vitro incubation of H. pylori broth cultures with DHA added at time 0 (growth, viable CFU)", "format": "cell-based, Helicobacter pylori", "settings": "DHA 250 μM"}, "[4]": {"test_system": "H. pylori strains 26695, SS1 and B128", "assay": "In vitro addition of DHA to a 12 hours H. pylori culture (bactericidal/bacteriostatic effect, CFU)", "format": "cell-based, Helicobacter pylori", "settings": "versus prior art doses", "description": "Stock solutions of DHA were diluted at desired concentrations (from 10 μM to 1000 μM) in Brucella broth (BB) enriched with 10% FBS. […] Each experiment consisting of a control (bacterial medium) and bacteria incubated with DHA at 10 μ[…] and 1000 μM was performed in triplicate. DHA was added at the time 0 of the experiments or after 12 hours. H. pylori broth cultures were incubated microaerophilically, at 37° C. for 48 hours. Every 6 hours, the OD 600 nm of the cultures was measured and 200 μL samples were diluted and plated on blood agar plates for the numeration of viable bacteria (colony-forming-units (CFU)) after 48 hours of incubation at 37° C. The question as to whether DHA has a bactericidal effect was answered by conducting an experiment where DHA was added to a 12 hours H. pylori culture. FIG. 2 represents the viability of the three strains of H. pylori used. Addition of DHA after 12 hours of H. pylori growth led to a decrease of the ability to form CFU in a dose dependent manner."}, "H. pylori strain SS1": {"test_system": "H. pylori strain SS1", "assay": "Mouse model for H. pylori gastric colonization, DHA in drinking water", "format": "in vivo", "settings": "for stomach colonization / mice in which colonization by H. pylori occurred / inhibition of H. pylori growth (gastric colonization): DHA 50 μM in drinking water", "description": "Five-weeks-old specific pathogen-free C57BU6 male mice have been purchased from Charles River Laboratories (France). Animals were housed in microisolators in polycarbonate cages. Food has been supplied ad libitum. Standard diet was purchased from SAFE (Epinay/Orge, France). Animals were acclimatized for one week before inoculation. The experiments reported in the study were approved in advanced by the Central Animal Facility Committee of Institut Pasteur, in conformity with the French Ministry of Agriculture Guidelines for Animal Care.\nH. pylori strain SS1 was grown on blood agar plates, harvested after 24 h and suspended in peptone broth. Twenty four mice (n=24) were orogastrically inoculated 100 μL of a suspension of 10^8 CFU/mL of H. pylori strain SS1, whereas non-infected groups of mice (n=24) were given 100 μL of peptone broth. Mice were sacrificed 1 or 3 months after infection. For each time point, the experiments consisted in 4 groups of mice, 2 groups received drinking water and for the two other groups, drinking water was supplemented with DHA at a final concentration of 50 μM. Dose of 50 μM corresponds more precisely to a quantity of 0.068 mg of DHA received by each mouse each day. Each two groups consisted of one uninfected-group (n=6) and one H. pylori strain SS1 infected-group (n=6). Stomachs were isolated from each mouse and used to measure H. pylori colonization as previously described by Ferrero et al.^51\nC57BL/6 mice were therefore infected with SS1 strain and start on DHA treatment for the whole period of the experiment, which was given in their drinking water in a concentration of 50 μM. Mice were sacrificed at one, three, six or nine months of infection."}, "H. pylori SS1 strain": {"test_system": "H. pylori SS1 strain", "assay": "Efficiency of DHA versus standard therapy in H. pylori eradication in mice", "format": "in vivo, C57BL/6 mice", "settings": "mice infected one month; DHA 15 days, standard therapy 7 days", "description": "C57BU6 mice have been infected with H. pylori SS1 strain for one month and proceed to treatment with DHA for 15 days or/and standard therapy for 7 days, as described elsewhere by Lee et al.^52 and van Zanten et al.^53. According to the standard therapy, mice received omeprazole (400 μmol/kg/day), metronidazole (14.2 μmol/kg/day) and clarithromycin (7.15 μmol/kg/day)^53."}}}
{"smiles": "CCCCC/C=C\\C/C=C\\C/C=C\\CCCCC(=O)O", "note": "[ω-6C18:3, linolenic acid ω-6C18:3]", "values": [{"measurement": "concentration that could inhibit the growth of H. Pylori", "setting": "H. pylori [1]", "result": 0.2, "unit": "mM"}]}
{"smiles": "O=C(O)CCCc1ccccc1", "note": "[4-phenylbutyrate]", "values": [{"measurement": "effect on growth of H. pylori", "setting": "H. pylori [2]", "result": "ability to inhibit the growth of H. pylori"}]}
{"smiles": "CCC(C(=O)O)c1ccccc1", "note": "(stereo not shown) [2-phenylbutyrate]", "values": [{"measurement": "effect on growth of H. pylori", "setting": "H. pylori [2]", "result": "ability to inhibit the growth of H. pylori"}]}
{"smiles": "CC/C=C\\C/C=C\\C/C=C\\C/C=C\\C/C=C\\C/C=C\\CCC(=O)O", "note": "[DHA, docosahexaenoic acid]", "values": [{"measurement": "bacterial viability of strain 26695 as compared to SS1", "setting": "[3]", "result": 100, "unit": "times"}, {"measurement": "doses giving bactericidal and bacteriostatic effects, lower than the prior art doses", "setting": "[4]", "result": "5 to 10", "unit": "times"}, {"measurement": "dose that showed a higher inhibitory role in gastric colonization", "setting": "H. pylori strain SS1; 25, 50 and 100 μM tested in drinking water", "result": 50, "unit": "µM"}, {"measurement": "stomach colonization", "setting": "H. pylori strain SS1; after 1 month of infection", "result": "0.47×10^5 CFU/g gastric tissue"}, {"measurement": "stomach colonization", "setting": "H. pylori strain SS1; after the third month", "result": "0.62×10^5 CFU/g gastric tissue"}, {"measurement": "mice in which colonization by H. pylori occurred", "setting": "H. pylori strain SS1; first month of infection", "result": 20, "unit": "%"}, {"measurement": "mice in which colonization by H. pylori occurred", "setting": "H. pylori strain SS1; third month", "result": 50, "unit": "%"}, {"measurement": "inhibition of H. pylori growth (gastric colonization)", "setting": "H. pylori strain SS1; nine months of infection", "result": "about 100 fold"}, {"measurement": "inhibition of H. pylori growth (gastric colonization)", "setting": "H. pylori strain SS1; one, three and six months of infection", "result": "approximately 10 fold"}, {"measurement": "toxicity", "setting": "H. pylori strain SS1; DHA 50 μM in mice drinking water, 0.068 mg per mouse per day", "result": "no toxicity concerns"}, {"measurement": "lower gastric colonization", "setting": "H. pylori SS1 strain", "result": 10, "unit": "times"}]}
{"smiles": "CC/C=C\\C/C=C\\C/C=C\\C/C=C\\C/C=C\\CCCC(=O)O", "note": "[EPA]", "values": [{"measurement": "concentration that could inhibit the growth of H. Pylori", "setting": "H. pylori [1]", "result": 0.2, "unit": "mM"}]}
{"smiles": "CC/C=C\\C/C=C\\C/C=C\\CCCCCCCC(=O)O", "note": "[linolenic acid ω-3C18:3]", "values": [{"measurement": "concentration that could inhibit the growth of H. Pylori", "setting": "H. pylori [1]", "result": 0.2, "unit": "mM"}]}
